Molecules are shown by their SMILES. Bounds are passed on as bounds.

One series concerns the target ALK [L1196M] (Homo sapiens, UniProt Q9UM73, L1196M). Nature of the series: Kinase inhibition assay, ALK [L1196M]. It counts as biochemical. On the procedure: (§1) Compound preparation: The test compounds were dissolved in DMSO to make 20 mM stock solutions. The compounds were diluted in DMSO to 0.1 mM (a dilution with 100 times the final concentration) before use, and a 3-fold series gradient dilution with 11 concentrations was made. Dilutions with 4 times of the final concentration were prepared by diluting with buffer when dosing.
(§2) Kinase assay: after preparing the buffer solution, the enzyme was mixed with pre-diluted compounds with different concentrations, and placed at room temperature for 30 minutes in duplicate. The corresponding substrate and ATP were added thereto and reacted at room temperature for 60 minutes (both a negative and a positive control were set). After the reaction, antibody was added for detection, and after incubation at room temperature for 60 minutes, Evnvision detection was carried out, and data was collected. Data was analyzed and fit according to XLfit5 software. IC50 was calculated by the following formula: (IC50=[(ABS test−ABS begin)/(ABS control−ABS begin)]×100).

A further series concerns the target ALK [WT] (Homo sapiens, UniProt Q9UM73). Nature of the series: Kinase inhibition assay, ALK [WT]. The format is biochemical. On the procedure:
as §1, §2

Series [1] in a line: Metabolic stability in human liver microsomes. The format is in vitro ADME. The settings on record: pH 7.4, 1 μM compound, 0.5 mg/mL protein; for microsomal CLint at 1 μM: read-out: CLint (uL/min/mg), Human liver microsome experiment; for half-life at 1 μM: read-out: t1/2 (min), Human liver microsome experiment. On the procedure: (§3) Experiments in microsomes: Human liver microsomes: 0.5 mg/mL, Xenotech; Rat liver microsomes: 0.5 mg/mL, Xenotech; Coenzyme (NADPH/NADH): 1 mM, Sigma Life Science; Magnesium chloride: 5 mM, 100 mM phosphate buffer (pH 7.4).
(§4) Preparation of stock solution: Powder of the example compounds was accurately weighed and dissolved in DMSO to 5 mM. Preparation of phosphate buffer (100 mM, pH7.4): A pre-formulated 0.5M potassium dihydrogen phosphate (150 mL) was mixed with 0.5M dibasic potassium phosphate (700 mL). The pH of the mixture was adjusted to 7.4 with 0.5M dibasic potassium phosphate solution. The mixture was diluted 5-fold with ultrapure water before use, and magnesium chloride was added to obtain a phosphate buffer (100 mM) containing 100 mM potassium phosphate, 3.3 mM magnesium chloride, pH7.4. A NADPH regeneration system solution (containing 6.5 mM NADP, 16.5 mM G-6-P, 3 U/mL G-6-PD, 3.3 mM magnesium chloride) was prepared and placed on wet ice prior to use. Preparation of stop solution: acetonitrile solution containing 50 ng/mL propranolol hydrochloride and 200 ng/mL tolbutamide (internal standard). 25057.5 μL of phosphate buffer (pH 7.4) was taken into a 50 mL centrifuge tube, to which 812.5 μL human liver microsomes were added, and mixed to obtain a liver microsome dilution solution with a protein concentration of 0.625 mg/mL. 25057.5 μL of phosphate buffer (pH 7.4) was taken into a 50 mL centrifuge tube, to which 812.5 μL SD rat liver microsomes were added, and mixed to obtain a liver microsome dilution solution with a protein concentration of 0.625 mg/mL.
(§5) Incubation of the samples: The stock solution of the respective compound was respectively diluted to 0.25 mM with an aqueous solution containing 70% acetonitrile, and used as a working solution, ready for use. 398 μL of the dilution solution of human liver microsomes or rat liver microsome were added to a 96-well incubation plate (N=2), respectively, and 2 μL of 0.25 mM working solution was added and mixed.
(§6) Metabolic stability assay: 300 μL of pre-chilled stop solution was added to each well of a 96-well deep well plate and placed on ice as a stop plate. The 96 well incubation plate and NADPH regeneration system were placed in a 37° C. water bath box, shaken at 100 rpm and pre-incubated for 5 min. 80 μL of incubation solution was taken out from each well of the incubation plate and added to the stop plate, mixed, and replenished with 20 μL of NADPH regeneration system solution as a 0-min sample. 80 μL of NADPH regeneration system solution was added to each well of the incubation plate to start the reaction and start counting. […] Separately, 100 μL of the reaction solution was taken at 10, 30, and 90 min reaction, respectively, added to a stop plate, and vortexed for 3 minutes to terminate the reaction. The stop plate was centrifuged at 5000×g at 4° C. for 4 min. 100 μL of the supernatant was added to a 96-well plate to which 100 μL of distilled water was previously added, mixed, and analyzed by LC-MS/MS.
(§7) Data analysis: The peak areas of the corresponding compound and internal standard were detected by LC-MS/MS system, and the ratio of the peak area of the compound to the internal standard was calculated.
On the technique in general: Liver microsomes are a subcellular fraction often used to study metabolism.

A further series has as its system BaF3 parental. Nature of the series: Cytotoxicity test (CellTiter-Glo), BaF3 parental. The format is cell-based. To be noted: Mus musculus, 72 hours, read-out: IC50(nM) parental (Ba/F3). On the procedure: (§8) The in vitro anti-proliferative activity of the compounds of the present disclosure against three types of cells that are cultured in vitro was tested by CellTiter-Glo method.
(§9) Cell lines: BaF3 parental; BaF3 [EML4-ALK] (From WuXi PharmaTech) and BaF3 [EMF4-AFK F1196M] (From WuXi PharmaTech); wherein, BaF3 parental was cultured in RPMI1640 medium containing 10 ng/ml IL-3, 10% fetal bovine serum, 100 U/ml penicillin, and 100 μg/ml streptomycin, BaF3 [EMF4-AFK] and BaF3 [EMF4-AFK F1196M] were cultured in RPMI1640 medium containing 10% fetal bovine serum, 100 U/ml penicillin, and 100 μg/ml streptomycin.
(§10) Reagents and materials: RPMI-1640 (GIBCO, Cat. No. A10491-01); fetal bovine serum (GIBCO, Cat. No. 10099141); 0.25% trypsin-EDTA (GIBCO, Cat. No. 25200); penicillin-streptomycin, liquid (GIBCO, Cat. No. 15140-122); DMSO (Sigma, Cat. No. D2650); CellTiter-Glo Test Kit (Promega, Cat. No. G7572), and 96-well plate (Corning, Cat. No. 3365).
(§11) 1. The test compounds were dissolved in DMSO to make stock solutions and subjected to a series gradient dilution to give solutions with 10-fold working concentration.
(§12) 2. The cells in the logarithmic growth phase were diluted with the culture solution to adjust to the specific cell concentration, 90 μi of cell suspension was added to the 96-well plate to make the cell density reach the specified concentration. The plate was incubated in a incubator at 37° C., containing 5% carbon dioxide gas overnight.
(§13) 3. 10 μl drug solutions were added to each well of the 96-well plate inoculated with cells. 10 concentrations of the compounds were tested starting from the highest concentration of 20 μM with a 3-fold series gradient dilution in duplicate.
(§14) 4. After continuously cultured for 72 hours, the cells were detected by CellTiter-Glo for the cell viability. The dose-effect curve was made using GraphPad Prism software and IC50 was calculated.

Series [2] has as its target T1, BaF3 [EML4-ALK] (Homo sapiens, UniProt Q9UM73).
T1 construct: IC50(nM) ALK (Ba/F3); other: 72 hours, CellTiter-Glo; BaF3 [EML4-ALK]; fused on or other part: Q9HC35 (Echinoderm microtubule-associated protein-like 4)
Nature of the series: Cytotoxicity test (CellTiter-Glo), BaF3 [EML4-ALK]. To be noted: 72 hours, CellTiter-Glo; read-out: IC50(nM) ALK (Ba/F3). It counts as cell-based. The procedure: as §8, §9, §10, §11, §12, §13, §14
On the technique in general: ATP-based viability assays read luminescence as a measure of living cells.

Series [3] has as its system BaF3 [EML4-ALK]. Nature of the series: Cytotoxicity test (CellTiter-Glo), BaF3 [EML4-ALK]. It counts as cell-based. To be noted: Ba/F3 cells. The procedure: as §8, §9, §10, §11, §12, §13, §14
The subject of series [4] is ALK[L1196M] (Ba/F3). Nature of the series: Cytotoxicity test (CellTiter-Glo), BaF3 EML4-ALK L1196M. The settings on record: Ba/F3 cells. It counts as cell-based. On the procedure: as §8, §9, §10, §11, §12, §13, §14
The target of series [5] is T2, ALK[L1196M] (Ba/F3) (Homo sapiens, UniProt Q9UM73, L1196M, cells depend on it).
T2 construct: IC50(nM) ALK[L1196M]; (Ba/F3); other: 72 hours, CellTiter-Glo; BaF3 [EMF4-AFK F1196M]; fused on or other part: Q9HC35 (Echinoderm microtubule-associated protein-like 4)
Described as above. The format is cell-based. The settings on record: 72 hours, CellTiter-Glo; read-out: IC50(nM) ALK[L1196M] (Ba/F3). The procedure:
as §8, §9, §10, §11, §12, §13, §14

Series [6] in a line: Metabolic stability in rat liver microsomes. To be noted: SD, pH 7.4, 1 μM compound, 0.5 mg/mL protein; for microsomal CLint at 1 μM: read-out: CLint (uL/min/mg), Rat liver microsome experiment; for half-life at 1 μM: read-out: t1/2 (min), Rat liver microsome experiment. The format is in vitro ADME. On the procedure: as §3, §4, §5, §6, §7

Chain of ALK [WT] (Q9UM73 19-1620): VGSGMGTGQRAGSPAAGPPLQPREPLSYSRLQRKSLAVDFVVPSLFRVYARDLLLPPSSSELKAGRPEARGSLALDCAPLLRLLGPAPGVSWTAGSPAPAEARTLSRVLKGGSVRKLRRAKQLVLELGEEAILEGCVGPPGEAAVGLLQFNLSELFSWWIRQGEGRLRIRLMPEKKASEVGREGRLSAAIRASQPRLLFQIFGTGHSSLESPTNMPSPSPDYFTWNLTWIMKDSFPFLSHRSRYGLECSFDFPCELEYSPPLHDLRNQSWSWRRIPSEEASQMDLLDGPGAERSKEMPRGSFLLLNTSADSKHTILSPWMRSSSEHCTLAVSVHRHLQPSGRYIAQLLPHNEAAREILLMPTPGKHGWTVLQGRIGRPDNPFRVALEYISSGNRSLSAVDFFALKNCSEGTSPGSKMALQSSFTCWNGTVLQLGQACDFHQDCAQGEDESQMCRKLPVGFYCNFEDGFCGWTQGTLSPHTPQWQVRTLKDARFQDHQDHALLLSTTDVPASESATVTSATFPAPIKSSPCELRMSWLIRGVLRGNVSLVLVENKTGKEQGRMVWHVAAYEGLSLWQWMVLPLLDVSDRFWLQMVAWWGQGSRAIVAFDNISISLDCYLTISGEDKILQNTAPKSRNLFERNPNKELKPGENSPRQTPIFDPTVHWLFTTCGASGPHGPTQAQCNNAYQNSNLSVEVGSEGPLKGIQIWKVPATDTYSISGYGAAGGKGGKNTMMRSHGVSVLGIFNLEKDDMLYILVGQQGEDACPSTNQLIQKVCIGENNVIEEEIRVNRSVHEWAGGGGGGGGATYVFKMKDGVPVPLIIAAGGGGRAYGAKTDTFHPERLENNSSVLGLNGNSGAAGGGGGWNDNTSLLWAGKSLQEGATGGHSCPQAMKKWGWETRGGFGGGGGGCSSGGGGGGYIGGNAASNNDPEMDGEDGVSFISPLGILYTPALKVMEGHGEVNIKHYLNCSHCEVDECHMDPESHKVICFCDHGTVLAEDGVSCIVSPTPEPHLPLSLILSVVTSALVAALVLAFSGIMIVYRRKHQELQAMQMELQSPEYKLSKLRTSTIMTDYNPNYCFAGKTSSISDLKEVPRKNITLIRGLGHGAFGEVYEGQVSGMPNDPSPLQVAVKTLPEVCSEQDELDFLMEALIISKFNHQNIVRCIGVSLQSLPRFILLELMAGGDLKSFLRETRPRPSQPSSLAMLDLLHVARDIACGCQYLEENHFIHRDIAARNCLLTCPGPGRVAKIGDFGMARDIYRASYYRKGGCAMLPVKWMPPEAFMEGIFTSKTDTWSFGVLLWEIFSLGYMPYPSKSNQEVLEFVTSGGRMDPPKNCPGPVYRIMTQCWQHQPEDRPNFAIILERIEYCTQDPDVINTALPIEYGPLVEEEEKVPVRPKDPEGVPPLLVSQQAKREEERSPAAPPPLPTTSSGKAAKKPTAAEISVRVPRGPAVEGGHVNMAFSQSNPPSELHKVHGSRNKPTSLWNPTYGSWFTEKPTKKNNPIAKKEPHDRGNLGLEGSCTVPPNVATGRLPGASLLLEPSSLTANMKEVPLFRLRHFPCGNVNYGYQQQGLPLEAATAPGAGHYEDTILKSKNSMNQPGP
T1 sequence (Q9UM73 whole entry, change not shown, the tested form may be a part): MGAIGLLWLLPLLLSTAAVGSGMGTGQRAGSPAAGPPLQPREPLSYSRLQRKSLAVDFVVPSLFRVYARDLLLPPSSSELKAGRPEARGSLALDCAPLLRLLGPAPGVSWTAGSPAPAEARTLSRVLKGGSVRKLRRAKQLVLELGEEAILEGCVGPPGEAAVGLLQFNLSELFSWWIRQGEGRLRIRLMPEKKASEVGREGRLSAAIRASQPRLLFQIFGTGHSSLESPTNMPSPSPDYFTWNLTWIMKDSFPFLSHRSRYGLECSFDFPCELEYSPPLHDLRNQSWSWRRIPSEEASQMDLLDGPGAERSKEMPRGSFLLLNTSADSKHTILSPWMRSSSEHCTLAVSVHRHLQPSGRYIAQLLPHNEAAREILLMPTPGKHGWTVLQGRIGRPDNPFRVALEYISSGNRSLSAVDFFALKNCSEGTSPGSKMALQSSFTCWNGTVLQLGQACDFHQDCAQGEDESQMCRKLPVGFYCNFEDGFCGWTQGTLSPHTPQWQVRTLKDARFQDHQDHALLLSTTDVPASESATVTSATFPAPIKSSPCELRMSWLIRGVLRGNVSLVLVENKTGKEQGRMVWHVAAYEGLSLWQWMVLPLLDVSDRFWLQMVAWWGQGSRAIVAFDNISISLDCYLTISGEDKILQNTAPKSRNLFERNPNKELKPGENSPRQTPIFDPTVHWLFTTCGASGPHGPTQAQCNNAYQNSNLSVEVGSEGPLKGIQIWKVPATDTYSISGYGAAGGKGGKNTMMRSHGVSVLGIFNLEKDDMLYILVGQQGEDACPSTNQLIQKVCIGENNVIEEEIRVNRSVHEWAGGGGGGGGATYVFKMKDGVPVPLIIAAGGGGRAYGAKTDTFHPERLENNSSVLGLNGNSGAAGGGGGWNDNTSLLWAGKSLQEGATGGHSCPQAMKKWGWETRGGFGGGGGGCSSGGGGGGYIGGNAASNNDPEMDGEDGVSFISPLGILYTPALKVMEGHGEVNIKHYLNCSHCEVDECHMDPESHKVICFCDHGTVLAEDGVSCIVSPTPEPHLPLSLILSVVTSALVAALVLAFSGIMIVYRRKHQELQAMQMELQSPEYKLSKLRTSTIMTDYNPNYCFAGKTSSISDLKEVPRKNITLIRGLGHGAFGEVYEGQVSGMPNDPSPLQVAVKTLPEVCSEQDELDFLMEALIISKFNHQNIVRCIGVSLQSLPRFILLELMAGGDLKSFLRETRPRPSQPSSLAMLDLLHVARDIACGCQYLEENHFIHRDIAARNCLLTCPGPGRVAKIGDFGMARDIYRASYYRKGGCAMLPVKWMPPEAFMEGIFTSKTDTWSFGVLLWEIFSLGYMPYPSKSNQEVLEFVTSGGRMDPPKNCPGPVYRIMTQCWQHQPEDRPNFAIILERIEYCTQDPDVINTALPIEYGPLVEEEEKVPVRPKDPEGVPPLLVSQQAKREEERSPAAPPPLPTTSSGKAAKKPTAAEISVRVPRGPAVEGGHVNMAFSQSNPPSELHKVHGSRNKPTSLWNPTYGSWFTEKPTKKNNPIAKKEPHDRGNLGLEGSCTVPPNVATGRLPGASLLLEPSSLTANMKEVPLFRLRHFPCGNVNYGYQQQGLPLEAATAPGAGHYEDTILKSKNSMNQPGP
Chain of ALK [L1196M] (Q9UM73 19-1620 L1196M): as the sequence (Q9UM73 19-1620) above, with L1178M counted along it
T2 sequence (Q9UM73 whole entry L1196M, the tested form may be a part): as the sequence (Q9UM73 whole entry, change not shown, the tested form may be a part) above, with L1196M counted along it

`COc1cc(C(C)(C)CN(C)C)ccc1Nc1ncc(Cl)c(Nc2ccccc2P(C)(C)=O)n1` [Example 12, (2-((5-chloro-2-((4-(1-(dimethylamino)-2-methylpropan-2-yl)-2-methoxyphenyl)amino)pyrimidin-4-yl)amino)phenyl)dimethylphosphine oxide]: the IC50 against ALK [L1196M] is 5 to 10 nM; at ALK [WT] it was 2 to 5 nM; in the series with BaF3 parental, not below 1000 nM. Moreover, the microsomal CLint at 1 μM is 73.5 µL/min/mg in series [1] and 86.8 µL/min/mg in series [6]. For the same compound, the half-life at 1 μM was 18.9 min in series [1] and 16 min in series [6]. The GI50 was 25 to 50 nM at BaF3 [EML4-ALK] [2] and 50 to 100 nM on ALK[L1196M] (Ba/F3) [5]. Besides, in the series on BaF3 [EML4-ALK] [3], the “Selectivity parental/ALK” value was in the range of 100 to 200. For the same compound, in the series on ALK[L1196M] (Ba/F3) [4], the “Selectivity parental/ALK[L1196M]” value was less than 50.
Consider `COc1cc(C(C)CN(C)C)ccc1Nc1ncc(Cl)c(Nc2ccccc2P(C)(C)=O)n1` (stereo not shown) [Example 17, (2-((5-chloro-2-((4-(1-(dimethylamino)propan-2-yl)-2-methoxyphenyl)amino)pyrimidin-4-yl)amino)phenyl)dimethylphosphine oxide], for which the IC50 at ALK [L1196M] is 5 to 10 nM; on ALK [WT], 5 to 10 nM; in the series on BaF3 parental it was not below 1000 nM. For the same compound, the microsomal CLint at 1 μM is 18.6 µL/min/mg in series [1] and 29.7 µL/min/mg in [6]. For the same compound, the half-life at 1 μM in series [1] stood at 74.3 min; in series [6] it was 46.7 min. Besides, the figures for the GI50 at BaF3 [EML4-ALK] [2] and at ALK[L1196M] (Ba/F3) [5] were 25 to 50 nM and 100 to 200 nM, respectively. Also, in the series on BaF3 [EML4-ALK] [3], the “Selectivity parental/ALK” value was 100 to 200. The “Selectivity parental/ALK[L1196M]” value with ALK[L1196M] (Ba/F3) [4] lay in the range of 50 to 100.
For the compound `CNCC(C)(C)c1ccc(Nc2ncc(Cl)c(Nc3ccccc3P(C)(C)=O)n2)c(OC)c1` [Example 11, (2-((5-chloro-2-((2-methoxy-4-(2-methyl-1-(methylamino)propan-2-yl)phenyl)amino)pyrimidin-4-yl)amino)phenyl)dimethylphosphine oxide], the IC50 against ALK [L1196M] is 5 to 10 nM; on ALK [WT] it was 2 to 5 nM; with BaF3 parental it was not below 1000 nM. Further, the values for the microsomal CLint at 1 μM in series [1] and in [6] were 23.8 µL/min/mg and 7.2 µL/min/mg, respectively. The half-life at 1 μM in series [1] is 58.2 min; in [6] it was 194 min. Besides, the GI50 was in the range of 25 to 50 nM on BaF3 [EML4-ALK] [2] and 50 to 100 nM on ALK[L1196M] (Ba/F3) [5]. The “Selectivity parental/ALK” value with BaF3 [EML4-ALK] [3] fell in the range of 100 to 200. In the series with ALK[L1196M] (Ba/F3) [4], the “Selectivity parental/ALK[L1196M]” value was 50 to 100.
For `COc1cc(CCN2CCN(C)CC2)ccc1Nc1ncc(Cl)c(Nc2ccccc2P(C)(C)=O)n1` [Example 5, (2-((5-chloro-2-((2-methoxy-4-(2-(4-methylpiperazin-1-yl)ethyl)phenyl)amino)pyrimidin-4-yl)amino)phenyl)dimethylphosphine oxide], the values for the IC50 on ALK [L1196M], at ALK [WT] and with BaF3 parental were not above 2 nM, not above 2 nM and not below 1000 nM, respectively. Besides, the microsomal CLint at 1 μM in series [1] is 17.3 µL/min/mg; in series [6], 35.9 µL/min/mg. Further, the results for the half-life at 1 μM in [1] and in series [6] were 80 min and 38.6 min, respectively. The GI50 was less than 25 nM at BaF3 [EML4-ALK] [2] and 25 to 50 nM on ALK[L1196M] (Ba/F3) [5]. Moreover, the “Selectivity parental/ALK” value in the series with BaF3 [EML4-ALK] [3] is 200 to 500. Moreover, the “Selectivity parental/ALK[L1196M]” value in the series on ALK[L1196M] (Ba/F3) [4] is 100 to 200.
With `COc1cc(C(C)N)ccc1Nc1ncc(Cl)c(Nc2ccccc2P(C)(C)=O)n1` (stereo not shown) [Example 7, (2-((2-((4-(1-aminoethyl)-2-methoxyphenyl)amino)-5-chloropyrimidin-4-yl)amino)phenyl)dimethylphosphine oxide], the IC50 is 2 to 5 nM against ALK [L1196M], 2 to 5 nM on ALK [WT] and not below 1000 nM in the series with BaF3 parental. For the same compound, the figures for the microsomal CLint at 1 μM in series [1] and in series [6] were 5.7 µL/min/mg and 4.1 µL/min/mg, respectively. Moreover, the half-life at 1 μM worked out at 244 min in [1] and 340 min in series [6]. The GI50 lay within 50 to 100 nM at BaF3 [EML4-ALK] [2] and 200 to 1000 nM at ALK[L1196M] (Ba/F3) [5]. Also, the “Selectivity parental/ALK” value with BaF3 [EML4-ALK] [3] was less than 50. For the same compound, the “Selectivity parental/ALK[L1196M]” value in the series on ALK[L1196M] (Ba/F3) [4] is recorded as less than 50.

The values above are taken from patent publication US11254696B2, “Dianilinopyrimidine compound for inhibiting kinase activity” (Shenzhen Targetrx, Inc., priority 2017, dated 2022).
